# From publication PMC12195982, “Design, Synthesis, and In Vitro Evaluation of 4-(Arylchalcogenyl)methyl)-1H-1,2,3-triazol-1-yl-menadione: Exploring Their Potential Against Tuberculosis” (Pharmaceuticals, 2025)
# Tested on: INH- and RIF-resistant Mtb (strain T113/09, KatG and rpoB mutation)
# Format: cell-based, Mycobacterium tuberculosis
SMILES,MIC INH/RIFR-Mtb,fold more potent than INH
CC1=C(Cn2cc(C[Se]c3cccc(C(F)(F)F)c3)nn2)C(=O)c2ccccc2C1=O [Compound 9c],>99 µg/mL,–
"NNC(=O)c1ccncc1 [INH, isoniazid, reference compound]",8 µg/mL,–
"CC1=C(Cn2cc(C[Se]c3ccc(Cl)cc3)nn2)C(=O)c2ccccc2C1=O [Compound 9b, 2-((4-(((4-chlorophenyl)selanyl)methyl)-1H-1,2,3-triazolyl)methyl)-3-methylnaphthalene-1,4-dione]",≤3 µg/mL,at least 7 fold
"CC1=C(Cn2cc(C[Se]c3ccccc3)nn2)C(=O)c2ccccc2C1=O [Compound 9a, 2-methyl-3-((4-((phenylselanyl)methyl)-1H-1,2,3-triazolyl)methyl)naphthalene-1,4-dione]",3 µg/mL,at least 7 fold
"CC1=C(C(c2ccc(C)cc2)n2cc(C[Se]c3ccccc3)nn2)C(=O)c2ccccc2C1=O (stereo not shown) [Compound 9h, 2-methyl-3-((4-((phenylselanyl)methyl)-1H-1,2,3-triazolyl)(p-methylphenyl)methyl) naphthalene-1,4-dione]",≤3 µg/mL,at least 7 fold
"CC1=C(C(c2ccccc2)n2cc(C[Se]c3ccccc3)nn2)C(=O)c2ccccc2C1=O (stereo not shown) [Compound 9g, 2-methyl-3-(phenyl(4-((phenylselanyl)methyl)-1H-1,2,3-triazolyl)methyl)naphthalene-1,4-dione]",≤3 µg/mL,at least 7 fold
